Measured values published in US4879390A, “Delta-butyrolactams, thereof, processes for the preparation thereof and their medical use” (priority 1984, dated 1989).

Columns and labels:
[1] = test system: hepatic microsomal cytochrome P-450; experiment: Induction of hepatic microsomal cytochrome P-450; type: in vivo, male Kunming strain mice
Experimental: (§1) Male Kunming strain mice weighing 18-22 grams were used throughout the experiments. The compounds to be tested were suspended in 5% Tween 80 and given orally by gavage. The vehicle of 5% Tween 80 solution was administered to control mice via the same route. In in vitro experiments, the compounds were dissolved in dimethylformamide and added directly into the incubation mixture.
(§2) The liver microsomal cytochrome P-450 plays a key role in the detoxification of xenobiotics. Mice were administered 250 mg/kg of Clausenamide once daily for 3 days. The control mice received the vehicle. The mice were killed after fasting overnight. Liver microsomes were prepared and microsomal monooxygenases were determined.

[2] = test system: acetaminophen hepatotoxicity in mice; experiment: Protective action against acetaminophen hepatotoxicity in mice; type: in vivo, male Kunming strain mice; conditions: 250 mg/kg × 3
Experimental: as §1
(§3) The parameters adopted for hepatotoxicity included serum transaminase (SGPT), liver triglycerides, and pathological examination of liver tissues. The liver lesions were scored mainly by the extent of inflammation and necrosis and graded from 0 to 4.
The experiment of anti-acetaminophen hepatotoxicity was performed in the following way. Mice were administered two doses (250 mg/kg) of Clausenamide on the first day followed by the same dose on the second day. A dose of 150 mg/kg of acetaminophen was injected ip 6 h after the last dose of the compound. SGPT was determined and liver tissues were examined 20 h after acetaminophen injection.

[3] = test system: serum and liver transaminase (GPT); experiment: Effect on serum and liver transaminase (GPT) levels of normal mice; type: in vivo, male Kunming strain mice
Experimental: as §1
Two groups of mice were administered the vehicle or 250 mg/kg of Clausenamide once daily for 7 consecutive days, respectively. The serum and liver GPT were determined 24 h after the last dose administration.

[4] = test system: CCl4 hepatotoxicity in mice; experiment: Protective action of Clausenamide against CCl4 hepatotoxicity in mice; type: in vivo, male Kunming strain mice; conditions: for Liver lipids (X ± SE): control 21.0 ± 4.2; for SGPT (X ± SE): nine mice per group, control 3016 ± 23
Experimental: as §1, §3
(§4) (a) Hepato-protective action
The procedure of experiment of anti-CCl4 hepatotoxicity was the same as described above. The dosages of the active compound used were 125 and 250 mg/kg. […] Liver lipids were not decreased.

[5] = test system: hypoxia tolerance (mouse); experiment: Increase of hypoxia tolerance (mouse); type: in vivo, male mice; conditions: for surviving/total animals: 30 min before test, 3.5% oxygen, control 9/60
Experimental: Collectives of male mice (20 g body weight) are placed in a plastic box divided into two chambers (size of the box: 15×28×40 cm corresponding to a volume of 16.8 l per bos). 20 mice are placed in each chamber. The box is perfused with a gas mixture containing 3.5% oxygen and 96.5% nitrogen. The perfusion volume is 4 l/min. The test substance and vehicle are administered orally 30 min before the test.
About 7 min after onset of perfusion with the hypoxic mixture animals die. The experiment is stopped when in the left hand chamber (control collective) three animals only show signs of respiration. The box is opened and the number of animals of the treated group still alive is counted.
The difference between the survived animals in both groups is evaluated using the X^2 test according to Fisher and Yates (1963) (Thomann et al. 1975).

[6] = test system: retrograde amnesia (rat); experiment: Retrograde amnesia (rat) under hypoxic conditions; type: in vivo, male rats; conditions: time to enter dark compartment 24 h after hypoxia
Experimental: The apparatus (39 cm long, 21 cm high, and 21 cm wide) consists of two compartments, one made of translucent plastic (29 cm long) and the other one painted black (10 cm long). It has a bottom of spaced metal grids which are connected to a stimulating device delivering 1.6 mA for 20 s.
Both compartments are connected via a door which can be closed.
Male rats (100-120 g body weight) will be placed individually in the large compartment and allowed to explore both compartments for 3 min.
Thereafter the animals are placed in the small (dark) compartment, the connecting door is closed and the foot shock is delivered. After that the animals are put in an air-tight cage which is perfused by a gas mixture containing 3.8% oxygen and 96.2 % nitrogen.
24 hours later the rats are placed again in the bright compartment. The observation time is 3 min.
One experiment is performed in three groups of 15 animals each:
Group A: control group, not exposed to hypoxia
Group B: control group, receiving hypoxia after first training
Group C: treated animals, receiving hypoxia after first training.
Evaluation: the times the animals need to enter the dark compartment are measured in seconds.
The time difference between the two control groups is considered to be 100% (A-B=100%).
The time difference between the control group B and the treated group C is calculated in percent (C-B=X%). X is considered to be a measure for the potency of the antiamnestic effect of the substance tested.

[7] = test system: thioacetamide hepatotoxicity in mice; experiment: Protective action against thioacetamide hepatotoxicity in mice; type: in vivo, male Kunming strain mice; conditions: thioacetamide 50 mg/kg
Experimental: as §1, §3, §4
In the experiment of thioacetamide hepatotoxicity, mice were treated according to the procedure of the first experiment except that thioacetamide (50 mg/kg) was used instead of CCl4.

[8] = test system: benzo(a)pyrene hydroxylase (AHH); experiment: Induction of hepatic microsomal enzymes: benzo(a)pyrene hydroxylase (AHH); type: in vivo, male Kunming strain mice
Experimental: as §1, §2

[9] = test system: Aminopyrine demethylase; experiment: Induction of hepatic microsomal enzymes: aminopyrine demethylase; type: in vivo, male Kunming strain mice
Experimental: as §1, §2

[10] = test system: barbital sleeping time; experiment: Effect on barbiturates sleeping time in mice (barbital); type: in vivo, male Kunming strain mice
Experimental: as §1
In another experiment, mice were given a dose of 250 mg/kg of Clausenamide. […] The sleeping time was estimated by recording the interval of disappearance and recovery of righting reflex. […] This means that the prolongation of pentobarbital sleeping time by Clausenamide was due to the inhibition of liver drug metabolism enzyme.

[11] = 250 mg/kg once daily for 3 days

With CN1C(=O)[C@@H](O)[C@H](c2ccccc2)[C@@H]1[C@@H](O)c1ccccc1 (relative stereo) [Clausenamide] the “Hepatic cytochrome P-450, in words” value [1, 11] was “increased significantly”, the “Cytochrome P-450” value ([1]; 250 mg/kg/day × 3, 6 per group, control 0.87 ± 0.07) was 1.14 ± 0.07 nmol/mg protein and the “Action on hepatic microsomal cytochrome P-450 (concluded from sleeping time and enzyme data)” value ([1]; 250 mg/kg, biphasic) was “inhibition and followed by induction”. For the same molecule, the “Hepatic injuries, in words” value ([2]; acetaminophen 150 mg/kg ip) was “markedly decreased SGPT levels and hepatic injuries”, the “SGPT levels, in words” value ([2]; acetaminophen 150 mg/kg ip) was “markedly decreased SGPT levels” and the Liver lipids ([2]; acetaminophen 150 mg/kg ip, control 79 ± 13) was 82 ± 17 mg/g. The SGPT ([2]; acetaminophen 150 mg/kg ip, nine mice per group, control 2778 ± 270, P < 0.01) was 697 ± 163 unit %, the “Liver inflammation (grade)” value ([2]; acetaminophen, graded from 0 to 4, control 0.5) was 0.1 grade and the “Liver necrosis (grade)” value ([2]; acetaminophen, graded from 0 to 4, control 1.4) was 0 grade. The “SGPT level of normal mice, in words” value ([3]; 250 mg/kg once daily for 7 days) was “slightly higher than that of the control, but the difference was not significant”, the “SGPT (X ± SE)” value ([3]; normal mice, 250 mg/kg/day × 7, eight mice per group, control 217 ± 7.5, P > 0.05) was 252 ± 22.1 unit % and the “LGPT (X ± SE)” value ([3]; normal mice, 250 mg/kg/day × 7, eight mice per group, control 260 ± 11.6, P > 0.05) was 292 ± 8.0 unit/100 mg. For the same molecule, the “Liver lipids (X ± SE)” value ([4]; 125 mg/kg × 2, CCl4) was 21.6 ± 4.4 mg/g liver, the “SGPT (X ± SE)” value ([4]; 125 mg/kg × 2, CCl4, P < 0.05) was 2365 ± 245 unit % and the “Liver lipids (X ± SE)” value ([4]; 250 mg/kg × 2, CCl4) was 13.4 ± 3.0 mg/g liver. The “Liver lesions: Inflammation grade” value ([4]; 250 mg/kg × 2, CCl4, graded from 0 to 4, control 1.70) was 0.38 grade, the “Liver lesions: Necrosis grade” value ([4]; 250 mg/kg × 2, CCl4, graded from 0 to 4, control 2.33) was 1.33 grade and the “SGPT (X ± SE)” value ([4]; 250 mg/kg × 2, CCl4, p < 0.01) was 1900 ± 257 unit %. For the same molecule, the “Liver injuries such as inflammation and necrosis, in words” value ([4]; 250 mg/kg, CCl4) was “less severe than those of the control”, the “Elevation of SGPT induced by CCl4, in words” value ([4]; 125 and 250 mg/kg) was “significantly depressed the elevation of SGPT” and the “Liver lipids, in words” value ([4]; CCl4) was “not decreased”. For the same molecule, the effect ([5]; 10 mg/kg p.o.) was 19.6%, the surviving/total animals ([5]; 10 mg/kg p.o.) was 19/60 and the effect ([5]; 30 mg/kg p.o.) was 41.1%. The surviving/total animals ([5]; 30 mg/kg p.o.) was 31/60, the effect ([5]; 100 mg/kg p.o.) was 58.8% and the “increase in the survival rate” value ([5]; 100 mg/kg p.o.) was 59%. The surviving/total animals ([5]; 100 mg/kg p.o.) was 40/60, the “hypoxia tolerance, in words” value ([5]; 10 to 100 mg/kg p.o.) was “significantly increased” and the “X (antiamnestic effect, C-B as percent of A-B)” value ([6]; 3 mg/kg p.o.) was 47%. For the same molecule, the “X (antiamnestic effect, C-B as percent of A-B)” value ([6]; 10 mg/kg p.o.) was 65%, the “X (antiamnestic effect, C-B as percent of A-B)” value ([6]; 30 mg/kg p.o.) was 100% and the “Liver lipids (X ± SE)” value ([7]; 250 mg/kg × 2, control 61 ± 11.7) was 39 ± 3.9 mg/g. For the same molecule, the “SGPT (X ± SE)” value ([7]; 250 mg/kg × 2, nine mice per group, control 1696 ± 231, P < 0.01) was 718 ± 229 unit %, the “SGPT levels, in words” value [7] was “markedly lowered the SGPT levels” and the “Benzo(a)pyrene hydroxylase activity, in words” value [8, 11] was “increased significantly”. The AHH ([8]; 250 mg/kg/day × 3, 6 per group, control 2.6 ± 0.4) was 5.7 ± 0.76 nmol/min/mg protein, the “Aminopyrine demethylase, in words” value [9, 11] was “increased significantly” and the Aminopyrine demethylase ([9]; 250 mg/kg/day × 3, 6 per group, control 81 ± 6.3) was 126 ± 5.2 nmol HCHO/min protein. The “Sleeping time (X ± SE)” value ([10]; 250 mg/kg, 1 h before barbital 200 mg/kg, 10 per group, control 197 ± 27, P >0.05) was 172 ± 13 min and the “Barbital sleeping time, in words” value ([10]; prior administration of the compound) was “did not affect sleeping time”.
